The text below walks through data of PMC4277619, “Design, Synthesis and Cytotoxicity Evaluationof New 1,2-diaryl-4, 5, 6, 7-Tetrahydro-1H-benzo[d] Imidazolesas Tubulin Inhibitors” (Iranian Journal of Pharmaceutical Research : IJPR, 2015).

Series [1] has as its system T47D. Put plainly: MTT assay, cytotoxicity against T47D breast cancer cells. The format is cell-based, human. The conditions noted are these: for IC50: Homo sapiens, T47D cells, 24 h incubation, MTT; for SI T47D: selectivity index = IC50 Fibroblast / IC50 T47D. Here is the method:
(§1) Fibroblast, MCF7 (human breast cancer), HEPG2 (human liver carcinoma), A549 (human lung cancer) and T47D (human breast cancer) cell lines were purchased from Pasteur Institute, Tehran, Iran. The cells were grown in RPMI1640 medium at 37 °C under 5% CO2 supplemented with 10% heat inactivated fetal bovine serum (FBS), 100 U/mL penicillin and 100 µg/mL streptomycin. Cell viability was evaluated using MTT method which is based on the reduction of 3-(4,5-dimethylthiazol-2-yl)-2,5-diphenyltetrazolium bromide (MTT) dye to purple formazan crystals by mitochondrial succinate dehydrogenase enzyme in living cells. The cells were seeded into 96-well plates at a concentration of 6000 cells/well and allowed to incubate for 24 h. The medium was then discarded and different concentrations of the test compounds dissolved in complete medium, were added to each well. After further incubation for 24 h at 37 °C, the medium was aspirated and 100 µL MTT (2 mg/mL) was added to the wells and incubated for 3 h at 37 °C. The produced formazan crystals were dissolved in 100 µL of DMSO. Plates were incubated for 20 min at 37 °C and the optical densities were read at 570 nm with a reference wavelength of 630 nm as background using a spectrophotometer plate reader (Infinite® M200, TECAN). Colchicine was used as positive control and DMSO as the solvent of the test compounds and its final concentration was less than 0.2%. IC50 was calculated by calibration curve using Prism software. All the tests were performed in triplicates.
Background: Tetrazolium assays rely on reduction of a dye to a coloured formazan, in cell work by metabolically active cells.

Series [2] deals with A549. Put plainly: MTT assay, cytotoxicity against A549 lung cancer cells. Particulars: for IC50: Homo sapiens, A549 cells, 24 h incubation, MTT; for SI A549: selectivity index = IC50 Fibroblast / IC50 A549. The format is cell-based, human. The procedure: as §1
Series [3] has as its system Fibroblast. Put plainly: MTT assay, cytotoxicity against normal fibroblast cells. In kind it is cell-based. Particulars: Homo sapiens, 24 h incubation. Here is the method: as §1
For series [4], the system named is HEPG2. The series can be described thus: MTT assay, cytotoxicity against HEPG2 liver carcinoma cells. The conditions noted are these: for IC50: Homo sapiens, HEPG2 cells, 24 h incubation, MTT; for SI HEPG2: selectivity index = IC50 Fibroblast / IC50 HEPG2. The format is cell-based, human. The procedure: as §1
The subject of series [5] is MCF-7. The series can be described thus: MTT assay, cytotoxicity against MCF-7 breast cancer cells. The format is cell-based, human. The conditions noted are these: for IC50: Homo sapiens, MCF7, MCF-7 cells, 24 h incubation, MTT; for SI MCF-7: selectivity index = IC50 Fibroblast / IC50 MCF-7. The procedure:
as §1

On to `COc1cc(-c2nc3c(n2-c2ccc(Cl)cc2)CCCC3)cc(OC)c1OC` [Compound 7e, 1-(4-Chlorophenyl)-2-(3,4,5-trimethoxyphenyl)-4,5,6,7-tetrahydro-1H-benzoimidazole], for which the melting point was 157 to 158 °C. In series [1], half-maximal inhibition (IC50) was put at 34.5 µM and the “SI T47D” value came to 1.6. In series [2], 87 µM corresponded to half-maximal inhibition (IC50) and the “SI A549” value is 0.62. Half-maximal inhibition in series [3] (IC50) was put at 54 µM. Besides, in series [4], the midpoint of inhibition, the IC50, lay at 15.6 µM and the “SI HEPG2” value turned out to be 3.46. Moreover, in series [5], the half-inhibitory concentration (IC50) stood at 36.4 µM and the “SI MCF-7” value was found to be 1.48.

Turning to `COc1cc(-c2nc3c(n2-c2cccc(Cl)c2)CCCC3)cc(OC)c1OC` [Compound 7f, 1-(3-Chlorophenyl)-2-(3,4,5-trimethoxyphenyl)-4,5,6,7-tetrahydro-1H-benzoimidazole], the half-inhibitory concentration (IC50) in series [1] was 58.6 µM; in series [2] it was more than 100 µM; in series [3], 87.3 µM; in series [4] it was 43.8 µM; in series [5] it was 77.9 µM. In series [1], the “SI T47D” value came out at 1.5. Moreover, in series [4], the “SI HEPG2” value is given as 2. Besides, the “SI MCF-7” value in series [5] is given as 1.12.

On to `COc1cc(-c2nc3c(n2-c2ccc(O)cc2)CCCC3)cc(OC)c1OC` [Compound 7c, 4-[2-(3,4,5-Trimethoxyphenyl)-4,5,6,7-tetrahydro-1H-benzoimidazole-1-yl]-phenol], for which the melting point is 259 to 260 °C. Also, in series [1], the IC50 was 41.2 µM and the “SI T47D” value is listed as 2. For the same molecule, the IC50 in series [2] was more than 100 µM. Also, the IC50 in series [3] worked out at 80.8 µM. Also, in series [4], it took 19.6 µM to reach half-maximal inhibition (IC50) and the “SI HEPG2” value came out at 4.11. The IC50 in series [5] was more than 100 µM.

Take `COc1cccc(-n2c(-c3cc(OC)c(OC)c(OC)c3)nc3c2CCCC3)c1` [Compound 7b, 1-(3-Methoxyphenyl)-2-(3,4,5-trimethoxyphenyl)-4,5,6,7-tetrahydro-1H-benzoimidazole]: the IC50 is more than 100 µM in series [1]; 30.4 µM in series [2]; more than 100 µM in series [3]; more than 100 µM in series [4]; more than 100 µM in series [5].

As for `COc1cc(-c2nc3c(n2-c2ccc(F)cc2)CCCC3)cc(OC)c1OC` [Compound 7d, 1-(4-Fluorophenyl)-2-(3,4,5-trimethoxyphenyl)-4,5,6,7-tetrahydro-1H-benzoimidazole], the melting point lay within 152 to 154 °C. Further, in series [1], half-maximal inhibition (IC50) was put at 30 µM and the “SI T47D” value was found to be 2. In series [2], half-maximal inhibition (IC50) required 86.5 µM and the “SI A549” value is listed as 0.68. Moreover, 59.5 µM corresponded to half-maximal inhibition in series [3] (IC50). For the same molecule, in series [4], the half-inhibitory concentration (IC50) came to 19.4 µM and the “SI HEPG2” value is recorded as 3.06. For the same molecule, in series [5], the IC50 was determined as 62.3 µM and the “SI MCF-7” value turned out to be 0.95.

`COc1ccc(-n2c(-c3cc(OC)c(OC)c(OC)c3)nc3c2CCCC3)cc1` [Compound 7a, 1-(4-Methoxyphenyl)-2-(3,4,5-trimethoxyphenyl)-4,5,6,7-tetrahydro-1H-benzoimidazole] displayed a melting point of 110 to 111 °C. In addition, in series [1], inhibition was half-maximal at 41.1 µM (IC50) and the “SI T47D” value is reported as 0.69. In series [2], the IC50 came out at 83.6 µM and the “SI A549” value amounted to 0.34. In series [3], the IC50 amounted to 28.5 µM. For the same molecule, in series [4], the half-inhibitory concentration (IC50) came to 22.5 µM and the “SI HEPG2” value came to 1.26. Moreover, in series [5], half-maximal inhibition (IC50) was put at 54.8 µM and the “SI MCF-7” value came to 0.52.

By IC50 is commonly meant the concentration that inhibits the measured activity by half. A higher IC50 goes with lower potency. As a reminder, the melting point is the temperature of the solid-liquid transition.
